Laboratory results from US20230016424A1, “HYBRID AMIDE DERIVATIVES OF AMPHOTERICIN B” (The Board of Trustees of the University of Illinois, priority 2019, published 2023).
In brackets after ≈: the same amount, converted by molar mass. Several values for one entry are separate records, joined by “and”; a condition that tells them apart may be missing. Equal values may be shown once.

Columns and labels:
[1] = system: C. albicans SN250, C. albicans, C. krusei, C. glabrata, C. tropicalis, A. fumigatus 91, 1163, 1100; assay: Average MIC over the tested strains; assay type: cell-based; design: Avg. MIC of AmB amide: unit not given here; conditions: for Avg. MIC of AmB amide: value of the corresponding C16 amide of AmB; for MIC: average over the 8 listed strains
A. niger = assay: MIC against moulds; assay type: cell-based; conditions: 6 isolates
A. terreus = assay: MIC against moulds; assay type: cell-based; conditions: 6 isolates
A. lentulus = assay: MIC against moulds; assay type: cell-based; conditions: 6 isolates
A. thermomutatus = assay: MIC against moulds; assay type: cell-based; conditions: for MIC A. thermomutatus: 6 isolates
Mucor circinelloides = assay: MIC against moulds; assay type: cell-based; conditions: 6 isolates
Coccidioides immitis = assay: microbe, parasite or virus in culture; assay type: cell-based
Fusarium oxysporum = assay: MIC against moulds; assay type: cell-based; conditions: 6 isolates
Cunninghamella sp. = assay: MIC against moulds; assay type: cell-based; conditions: 6 isolates
Talaromyces marneffei = assay: MIC against moulds; assay type: cell-based; conditions: 6 isolates
Saksenaea sp. = assay: MIC against moulds; assay type: cell-based; conditions: 4 isolates
Candida krusei = assay: MIC against yeasts; assay type: cell-based; conditions: 2 isolates
Candida parapsilosis = assay: MIC against yeasts; assay type: cell-based; conditions: 8 isolates
Scedosporium aurantiacum = assay: MIC against rare moulds resistant to AmB; assay type: cell-based; conditions: 4 isolates
Scedosporium boydii = assay: MIC against rare moulds resistant to AmB; assay type: cell-based; conditions: 6 isolates
Lomentospora prolificans = assay: MIC against rare moulds resistant to AmB; assay type: cell-based; conditions: 6 isolates
Plasma Stability = assay type: in vitro ADME; conditions: for half-life at 1 µM: pH 7.4
Protocol: Plasma Stability: Procedure: […] Plasma was warmed to 37° C. prior to the experiment and centrifuged for 5 mins at 4000 rpm. […] Each time point was monitored in triplicate (0, 10, 30, 60 and 120 min). 4 uL/well aliquot of the working solution was mixed to the blank plasma and incubated at 37° C. AT each time point samples were quenched with ACN stop solution containing 200 ng/ml Tolbutamide & 200 ng/ml Labetalol at 1:3 ratio and mix well on shaker for 10 min then centrifuge at 4000 rpm for 15 min. A 100 ul aliquot of supernatant was mixed with 100 μL of ultra-pure and submitted for LC-MS/MS analysis.

[2] = Liver microsome stability, summary for all species; assay type: in vitro ADME; conditions: Mouse, rat, dog, monkey, human: All species
Protocol: Working Compound solution: 10 uM in 50 mM potassium phosphate buffer with 9% MeOH and 1% DMSO
Microsome solution: working concentration 0.625 mg/ml
Stopping solution: Cold ACN with 200 ng/ml Tolbutamide and 200 ng/ml Labetalol (4° C.)
Procedure: In the well plates (T5, T10, T20, T30, T60, NCF60 (no cofactor 60)) 10 uL of the compound/control working solution was added (except T0 and matric blank) followed by microsome solution (80 uL) and the mixture was incubated at 37 C for about 10 mins. A solution of potassium phosphate (10 ul of 50 mM) was added to NCF60 well, incubated at 37 C and time counting started. After prewarming 10 ul of NADPH regenerating solution was added to each plate to start the reaction. At different time point 300 uL/well of stopping solution to terminate the reaction. The sampling plates were shaken for 10 mins and the centrifuged for 20 mins at 4000 rpm. The supernatant was half diluted with ultra pure water and the analyzed using LCMS.

human erythrocytes = assay: MHC hemolysis assay; assay type: cell-based
Protocol: MHC (FIG. 21B): The protocol for the hemolysis assay was adapted from the report of Paquet and coworkers (Chem. Eur. J. 2008, 14, 2465-2481). Whole human blood (sodium heparin) was purchased from Bioreclamation LLC (Westbury, N.Y.) and stored at 4° C. and used within two days of receipt. To a 2.0 mL eppendorf tube, 1 mL of whole human blood was added and centrifuged at 10,000 g for 2 minutes. The supernatant was removed and the erythrocyte pellet was washed with 1 mL of sterile saline and centrifuged at 10,000 g for 2 minutes. The saline wash was repeated for a total of three washes. The erythrocyte pellet was suspended in 1 mL of RBC buffer (10 mM NaH2PO4, 150 mM NaCl, 1 mM MgCl2, pH 7.4) to form the erythrocyte stock suspension.
Compounds were prepared as >15 mM stock solutions in DMSO and serially diluted to the following concentrations with DMSO: 7689, 5126, 2563, 2050, 1538, 1025, 769, 513, 384, 256, 205, 154, 103, 77, 51, 26 μM. To a 0.2 mL PCR tube, 24 μL of RBC buffer and 1 μL of compound stock solution were added, which gave final concentrations of […]. Positive and negative controls were prepared by adding 1 μL of DMSO to MilliQ water or RBC buffer, respectively to 0.2 mL PCR tube. To each PCR tube, 0.63 μL of the erythrocyte stock suspension was added and mixed by inversion. The samples were incubated at 37° C. for 2 hours. The samples were mixed by inversion and centrifuged at 10,000 g for 2 minutes. 15 μL of the supernatant from each sample was added to a 384-well place. Absorbances were read at 540 nm using a Biotek H1 Synergy Hybrid Reader (Wanooski, Vt.). Experiments were performed in triplicate and the reported MHC represents an average of three experiments.

yeast (5 strains) = assay: MICavg yeast (5 strains); assay type: cell-based; design: unit not given beside the values
[3] = Table 12, C16 amides of C2'epiAmB
[4] = Table 13, C16 amides of C2’epiAmB
[5] = hemolysis, human erythrocytes, 37° C. 2 hours

## CC1C=CC=CC=CC=CC=CC=CC=CC(OC2OC(C)C(O)C(N)C2O)CC2OC(O)(CC(O)CC(O)C(O)CCC(O)CC(O)CC(=O)OC(C)C(C)C1O)CC(O)C2C(=O)NCCF (centres unmarked) [Compound BM]
[1]; [3]
  Average MIC: 0.844 µM
[1]; [4]
  Average MIC: 840 µM
[1]; not of the C2’epi compound
  Avg. MIC of AmB amide: 0.39
A. niger
  MIC: 3 µM (≈ 2.91 µg/mL)
A. terreus
  MIC: 1.08 µM (≈ 1.05 µg/mL)
A. lentulus
  MIC: 2.83 µM (≈ 2.74 µg/mL)
A. thermomutatus
  MIC A. thermomutatus: 1.7 µM (≈ 1.65 µg/mL)
Mucor circinelloides
  MIC: 1 µM (≈ 0.969 µg/mL)
Coccidioides immitis
  MIC Coccidioides immitis: 0.23 µM (≈ 0.223 µg/mL)
Fusarium oxysporum
  MIC: 9.3 µM (≈ 9.01 µg/mL)
Cunninghamella sp.
  MIC: 6 µM (≈ 5.81 µg/mL)
Talaromyces marneffei
  MIC: 0.2 µM (≈ 0.194 µg/mL)
Saksenaea sp.
  MIC: 0.34 µM (≈ 0.33 µg/mL)
Candida krusei
  MIC: 2 µM (≈ 1.94 µg/mL)
Candida parapsilosis
  MIC: 2.4 µM (≈ 2.33 µg/mL)
Scedosporium aurantiacum
  MIC: >16 µM
Scedosporium boydii
  MIC: >16 µM
Lomentospora prolificans
  MIC: >16 µM
Plasma Stability; Human Plasma
  Half Life: >289; >289 min
Plasma Stability; Mouse Plasma
  Half Life: >289; >289 min
[2]
  Liver microsome T1/2: >145 min
Human erythrocytes; summary table, unit not given
  MHC: >100
Yeast (5 strains)
  MICavg yeast (5 strains): 0.58

## CC1C=CC=CC=CC=CC=CC=CC=CC(OC2OC(C)C(O)C(N)C2O)CC2OC(O)(CC(O)CC(O)C(O)CCC(O)CC(O)CC(=O)OC(C)C(C)C1O)CC(O)C2C(=O)NCCO (centres unmarked) [Compound BA]
[1]; [3]
  Average MIC: 1.031 µM
[1]; [4]
  Average MIC: 1030 µM
[1]
  MIC: 0.727 µM
[1]; value of the corresponding AmB analogue, not of the C2’epi compound
  Average MIC for AmB analogue: 0.328 μM
[1]; not of the C2’epi compound
  Avg. MIC of AmB amide: 0.18
A. niger
  MIC: 0.58 µM (≈ 0.561 µg/mL)
A. terreus
  MIC: 3.33 µM (≈ 3.22 µg/mL)
A. lentulus
  MIC: 3 µM (≈ 2.9 µg/mL)
A. thermomutatus
  MIC A. thermomutatus: 1.6 µM (≈ 1.55 µg/mL)
Mucor circinelloides
  MIC: 1 µM (≈ 0.967 µg/mL)
Coccidioides immitis
  MIC Coccidioides immitis: 0.29 µM (≈ 0.28 µg/mL)
Fusarium oxysporum
  MIC: 11.3 µM (≈ 10.9 µg/mL)
Cunninghamella sp.
  MIC: 7.3 µM (≈ 7.06 µg/mL)
Talaromyces marneffei
  MIC: 0.15 µM (≈ 0.145 µg/mL)
Saksenaea sp.
  MIC: 0.34 µM (≈ 0.329 µg/mL)
Candida krusei
  MIC: 4 µM (≈ 3.87 µg/mL)
Candida parapsilosis
  MIC: 2.5 µM (≈ 2.42 µg/mL)
Scedosporium aurantiacum
  MIC: >16 µM
Scedosporium boydii
  MIC: >16 µM
Lomentospora prolificans
  MIC: >16 µM
Plasma Stability; Human Plasma
  % Remaining at 120 min: 118%
  Half Life: >289 min and >289; >289 min
Plasma Stability; Mouse Plasma
  % Remaining at 120 min: 100%
  Half Life: >289 min and >289; >289 min
[2]
  Liver microsome T1/2: >145 min
Human erythrocytes; [5]
  MHC: >500 µM
Human erythrocytes; summary table, unit not given
  MHC: >500
Yeast (5 strains)
  MICavg yeast (5 strains): 0.59

## C[C@@H]1[C@H](O)[C@@H](C)/C=C/C=C/C=C/C=C/C=C/C=C/C=C/[C@H](OC2O[C@H](C)[C@@H](O)[C@H](N)[C@@H]2O)C[C@@H]2O[C@](O)(C[C@@H](O)C[C@@H](O)[C@H](O)CC[C@@H](O)C[C@@H](O)CC(=O)O[C@H]1C)C[C@H](O)[C@H]2C(=O)O (some centres unmarked) [AmB, Amphotericin B]
[1]
  MIC: 0.642 µM and 0.44 µM
A. niger; Aspergillus niger
  MIC: 0.21 µM (≈ 0.194 µg/mL)
A. terreus; Aspergillus terreus
  MIC: 3 µM (≈ 2.77 µg/mL)
A. lentulus; Aspergillus lentulus
  MIC: 3.75 µM (≈ 3.47 µg/mL)
A. thermomutatus; Aspergillus thermomutatus, read-out: MIC A. thermomutatus
  MIC: 0.6 µM (≈ 0.554 µg/mL)
Mucor circinelloides; Mucor circinelloides
  MIC: 0.125 µM (≈ 0.116 µg/mL)
Coccidioides immitis; Coccidioides immitis, read-out: MIC Coccidioides immitis
  MIC: 0.125 µM (≈ 0.116 µg/mL)
Fusarium oxysporum; Fusarium oxysporum
  MIC: 1.5 µM (≈ 1.39 µg/mL)
Cunninghamella sp.; Cunninghamella
  MIC: 2 µM (≈ 1.85 µg/mL)
Talaromyces marneffei; Talaromyces marneffei
  MIC: 0.09 µM (≈ 0.0832 µg/mL)
Saksenaea sp.
  MIC: 0.06 µM (≈ 0.0554 µg/mL)
Candida krusei; Pichia kudriavzevii
  MIC: 1 µM (≈ 0.924 µg/mL)
Candida parapsilosis; Lodderomyces parapsilosis
  MIC: 1.1 µM (≈ 1.02 µg/mL)
Scedosporium aurantiacum; Scedosporium aurantiacum
  MIC: > 16 µM
Scedosporium boydii; Scedosporium boydii
  MIC: > 16 µM
Lomentospora prolificans; Lomentospora prolificans
  MIC: > 16 µM
Plasma Stability; Human Plasma
  % Remaining at 120 min: 97.7%
  Half Life: >289; >289 min
  half-life at 1 µM: > 289 min
Plasma Stability; Rat Plasma
  % Remaining at 120 min: 88.3%
  half-life at 1 µM: > 289 min
Plasma Stability; Mouse Plasma
  half-life at 1 µM: > 289 min
[2]; liver microsomes, read-out: Liver microsome T1/2
  half-life at 1 µM: > 145 min
Human erythrocytes; [5]
  MHC: 8.4 µM
Human erythrocytes; summary table, unit not given
  MHC: 8.4
Yeast (5 strains)
  MICavg yeast (5 strains): 0.23
